Experiments:
[1] = test system: human HLA-A24 and β2-microglobulin; test: MHC-peptide complex formation assay (ELISA), HLA-A24; assay type: binding; conditions: MHC-peptide formation rate versus positive control peptide
[2] = test system: T cells (spleen cells from HLA-A24 transgenic mice); test: IFN-γ ELISpot on spleen cells of peptide-immunized HLA-A24 transgenic mice; assay type: in vivo, HLA-A24 transgenic mouse; conditions: HLA-A24 transgenic mice immunized as in Example 2; FIG. 2
Description: FIG. 2 is a chart showing induction of interferon γ in spleen cells from HLA-A24 transgenic mice immunized with a number of immunogenic peptides from TAL6: peptides 17 (SEQ ID NO:14), 18 (SEQ ID NO:15), 20 (SEQ ID NO:16), 21 (SEQ ID NO:17), 22 (SEQ ID NO:18), 23 (SEQ ID NO:19), 24 (SEQ ID NO:20), 26 (SEQ ID NO:21), 27 (SEQ ID NO:22), 29 (SEQ ID NO:41), and 30 (SEQ ID NO:23). “N” refers to a negative control and “P” refers to a positive control.
(§1) One mg of each of the peptides (test peptides) that were identified as HLA-A2-restricted T-cell epitopes in Examples 1 above and 1 mg of PADRE peptide ([…]; SEQ ID NO:25), both in 0.5 ml PBS, were mixed together with 0.5 mL incomplete Freund's adjuvant (IFA). An EBV-derived HLA-A2-restricted epitope, i.e., […](GLC; SEQ ID NO:35), was used as a positive control and an EBV-derived HAL-A24-restricted epitope, i.e., TYGPVFMCL (TYG; SEQ ID NO:37), was used as negative control. 100 μl of the mixture (containing 50 μg of a test peptide) was injected s.c. into the tail base of a HLA-A2 transgenic mouse, once every 7 days for two times. Spleen cells were harvested from the treated mice 7 days after the second injection and cultured in the presence of 10 μg/mL of the test peptide. The supernatant of the cell culture was subjected to an ELISpot assy to examine the amount of IFN-γ contained therein, which correlates to the activity of the test peptide for stimulating T cells.
Each of the peptides (test peptides) that were identified as HLA-A24-restricted T-cell epitopes in Examples 3 above were used to immunize HAL-A24 transgenic mice, following the procedures described in Example 2 above. EBV peptides GLC and TYG were used as a negative control and a positive control, respectively.

[3] = test system: T cells (spleen cells from HLA-A2 transgenic mice); test: IFN-γ ELISpot on spleen cells of peptide-immunized HLA-A2 transgenic mice; assay type: in vivo, HLA-A2 transgenic mouse; conditions: 50 μg peptide with PADRE peptide and IFA s.c. twice; spleen cells cultured with 10 μg/mL test peptide; FIG. 1
Method: FIG. 1 is a chart showing induction of interferon γ in spleen cells from HLA-A2 transgenic mice immunized with a number of immunogenic peptides from TAL6: peptides 1 (SEQ ID NO:1), 2 (SEQ ID NO:2), 5 (SEQ ID NO:4), 6 (SEQ ID NO:5), 7 (SEQ ID NO:6), 8 (SEQ ID NO:7), 9 (SEQ ID NO:8), 11 (SEQ ID NO: 10), and 14 (SEQ ID NO:12). “NP” refers to absence of any peptide.
as §1

[4] = test system: splenocytes from pEK/TAL6-immunized mice; test: IFN-γ ELISpot on splenocytes of pEK/TAL6 DNA immunized mice stimulated with TAL6 peptides; assay type: in vivo; conditions: splenocytes from pEK/TAL6-immunized mice stimulated with the peptide; FIG. 3
[5] = test system: tumor cells EL4/TAL6/HLA-A2; test: Tumor growth after peptide immunization and transplantation of EL4/TAL6/HLA-A2 tumor cells; assay type: in vivo, mice
Method: FIG. 4 is a chart showing inhibition of tumor growth in mice immunized by immunopeptides derived from TAL6. Tumor volume was calculated using the formula: tumor volume=length×width×width/2. Panel (a): HLA-A2 transgenic mice. Panel (b): Wild-type mice.
Peptide 2 or Peptide 5 listed in Table 1 above, mixed with IFA, was administered subcutaneously to HLA-A2 transgenic mice (50 μg/mouse) or wild-type C57BL/6 mice twice in two weeks. Twenty-one days later, each of the immunized mice was transplanted subcutaneously with 2×10^5 of tumor cells EL4/TAL6/HLA-A2 (EL4 cells stably expressing both TAL6 and HLA-A2) to induce tumor growth in the immunized mice. Sizes of the tumors in the treated mice were monitored every 2-3 days. The tumor volume was calculated using the formula: tumor volume=length×width×width/2.

[6] = HLA-A2 transgenic mice, 50 μg/mouse peptide with IFA s.c. twice, FIG. 4 panel (a)

Sequence	Relative binding (%) to HLA-A24 [1] [%]	further results
HIVEWNVSLF (Synthetic HLA-A24 restricted CTL epitope (154-163 aa of TAL6)) [Peptide 28, TAL6 position 154-163]	28.03	–
KYASENHLS (Synthetic HLA-A24 restricted CTL epitope (36-44 aa of TAL6)) [Peptide 21, TAL6 position 36-44]	64.59	–
FFSGIVGGGL (Synthetic HLA-A24 restricted CTL epitope (49-57 aa of TAL6)) [Peptide 23, TAL6 position 49-57]	72.36	–
EWNVSLFSIL (Synthetic HLA-A24 restricted CTL epitope (157-166 aa of TAL6)) [Peptide 31, TAL6 position 157-166]	22.24	–
GGIEFILCL (Synthetic HLA-A24 restricted CTL epitope (170-178 aa of TAL6)) [Peptide 32, TAL6 position 170-178]	25.29	–
IVEWNVSLF (Synthetic HLA-A24 restricted CTL epitope (155-163 aa of TAL6)) [Peptide 29, TAL6 position 155-163]	41.01	IFN-γ secretion of T cells [2]: induced IFN-γ secretion of T cells
RFVWFFSGI (Synthetic HLA-A24 restricted CTL epitope (45-53 aa of TAL6)) [Peptide 22, TAL6 position 45-53]	91.88	–
LYFPNGETKY (Synthetic HLA-A24 restricted CTL epitope (28-36 aa of TAL6)) [Peptide 20, TAL6 position 28-36]	84.95	–
TFASTEGQYL (Synthetic HLA-A24 restricted CTL epitope (131-140 aa of TAL6)) [Peptide 26, TAL6 position 131-140]	115.71	–
QYLLDTSTW (Synthetic HLA-A24 restricted CTL epitope (138-147 aa of TAL6)) [Peptide 27, TAL6 position 138-147]	110.75	IFN-γ secretion of T cells [2]: induced IFN-γ secretion of T cells
EWNVSLFSI (Synthetic HLA-A24 restricted CTL epitope (157-165 aa of TAL6)) [Peptide 30, TAL6 position 157-165]	74.01	IFN-γ secretion of T cells [2]: induced IFN-γ secretion of T cells
TFASTEGQY (Synthetic HLA-A24 restricted CTL epitope (131-139 aa of TAL6)) [Peptide 25, TAL6 position 131-139]	49.24	–
HSLVGLALL (Synthetic HLA-A24 restricted CTL epitope (12-20 aa of TAL6)) [Peptide 18, TAL6 position 12-20]	61.73	–
SLVGLALLC (Synthetic HLA-A2 restricted CTL epitope (13-21 aa of TAL6)) [Peptide 2, TAL6 position 13-21]	–	IFN-γ secretion of T cells [3]: induced IFN-γ secretion of T cells; IFN-γ-secreting cells activated by test TAL6 peptide [4]: responsive; Inhibition of tumor growth (tumor volume) [5, 6]: reduced tumor growth in the HLA-A2 transgenic mice, albeit in a lower level
GGIEFILCLI (Synthetic HLA-A24 restricted CTL epitope (170-179 aa of TAL6)) [Peptide 33, TAL6 position 170-179]	14.85	–
GYCVIVAAL (Synthetic HLA-A24 restricted CTL epitope (105-113 aa of TAL6)) [Peptide 24, TAL6 position 105-113]	117.78	–
CYGKCARCI (Synthetic HLA-A24 restricted CTL epitope (2-10 aa of TAL6)) [Peptide 17, TAL6 position 2-10]	125.73	–
IAANILLYF (Synthetic HLA-A24 restricted CTL epitope (22-30 aa of TAL6)) [Peptide 19, TAL6 position 22-30]	0.00	–
LLMLLPAFV (Synthetic HLA-A2 restricted CTL epitope (58-66 aa of TAL6)) [Peptide 5, TAL6 position 58-66]	–	IFN-γ secretion of T cells [3]: induced IFN-γ secretion of T cells; IFN-γ-secreting cells activated by test TAL6 peptide [4]: responsive; Inhibition of tumor growth (tumor volume) [5, 6]: significantly inhibited tumor growth; Inhibition of tumor growth (tumor volume) ([5]; wild-type C57BL/6 mice, peptide with IFA s.c. twice, FIG. 4 panel (b)): not in the wild-type mice
